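A five-concentration, 48-hour dose response in 96-well plates underlies each endpoint, interpolated linearly between surrounding concentrations. The concentration for 50% growth inhibition is given as GI50. TGI is the concentration that stops growth completely.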
Experiments:
Experiment in all cases: DTP human tumour cell line panel, 48 h
HOP-92 NSCLC = system: HOP-92 NSCLC
SF-295 CNS = system: SF-295 CNS
SR leukemia = system: SR leukemia
SK-MEL-5 melanoma = system: SK-MEL-5 melanoma
DU-145 prostate = system: DU-145 prostate
COLO 205 colon = system: COLO 205 colon
SK-MEL-2 melanoma = system: SK-MEL-2 melanoma
UACC-257 melanoma = system: UACC-257 melanoma
NCI/ADR-RES ovarian = system: NCI/ADR-RES ovarian
CCRF-CEM leukemia = system: CCRF-CEM leukemia
U251 CNS = system: U251 CNS
NCI-H226 lung = system: NCI-H226 lung
HL-60(TB) leukemia = system: HL-60(TB) leukemia
NCI-H522 lung = system: NCI-H522 lung
SN12C renal = system: SN12C renal
IGROV1 ovarian = system: IGROV1 ovarian
SNB-19 CNS = system: SNB-19 CNS
OVCAR-4 ovarian = system: OVCAR-4 ovarian
MDA-MB-468 breast = system: MDA-MB-468 breast
OVCAR-5 ovarian = system: OVCAR-5 ovarian
A549 NSCLC = system: A549 NSCLC
M14 melanoma = system: M14 melanoma
OVCAR-8 ovarian = system: OVCAR-8 ovarian
T-47D breast = system: T-47D breast
MCF7 breast = system: MCF7 breast
TK-10 renal = system: TK-10 renal
NCI-H460 lung = system: NCI-H460 lung
MDA-MB-231 breast = system: MDA-MB-231 breast
A498 renal = system: A498 renal
HOP-62 NSCLC = system: HOP-62 NSCLC
RPMI-8226 leukemia = system: RPMI-8226 leukemia
MDA-MB-435 = system: MDA-MB-435
UACC-62 melanoma = system: UACC-62 melanoma
BT-549 breast = system: BT-549 breast
NCI-H23 lung = system: NCI-H23 lung
OVCAR-3 ovarian = system: OVCAR-3 ovarian
LOX IMVI melanoma = system: LOX IMVI melanoma
RXF 393 renal = system: RXF 393 renal
MOLT-4 leukemia = system: MOLT-4 leukemia
ACHN renal = system: ACHN renal
786-0 renal = system: 786-0 renal
PC-3 prostate = system: PC-3 prostate
KM12 colon = system: KM12 colon
EKVX NSCLC = system: EKVX NSCLC
SNB-75 CNS = system: SNB-75 CNS
SF-539 CNS = system: SF-539 CNS
SF-268 CNS = system: SF-268 CNS
CAKI-1 renal = system: CAKI-1 renal
MALME-3M melanoma = system: MALME-3M melanoma
SK-MEL-28 melanoma = system: SK-MEL-28 melanoma
HT29 colon = system: HT29 colon
SK-OV-3 ovarian = system: SK-OV-3 ovarian
HS 578T breast = system: HS 578T breast
UO-31 renal = system: UO-31 renal
HCT-116 colon = system: HCT-116 colon
HCC-2998 colon = system: HCC-2998 colon
SW-620 colon = system: SW-620 colon
HCT-15 colon = system: HCT-15 colon

## COc1cc2oc(-c3cccc(C(=O)Nc4ccc(Cl)cc4)c3)cc(=O)c2c(OCCNC(=O)[C@@H](N)CO)c1OC
HOP-92 NSCLC
  GI50: 2.65 µM
  TGI: 12.7 µM
SF-295 CNS
  GI50: 6.84 µM
  TGI: 25.1 µM
SR leukemia
  GI50: 2.66 µM
  TGI: 7.75 µM
SK-MEL-5 melanoma
  GI50: 9.11 µM
  TGI: 26.6 µM
DU-145 prostate
  GI50: 16 µM
  TGI: 35.4 µM
COLO 205 colon
  GI50: 6 µM
  TGI: 20.2 µM
SK-MEL-2 melanoma
  GI50: 2.1 µM
  TGI: 5.03 µM
UACC-257 melanoma
  GI50: 1.97 µM
  TGI: 3.74 µM
NCI/ADR-RES ovarian
  GI50: > 100 µM
  TGI: > 100 µM
CCRF-CEM leukemia
  GI50: 2.39 µM
  TGI: 5.83 µM
U251 CNS
  GI50: 2.02 µM
  TGI: 3.9 µM
NCI-H226 lung
  GI50: 12.8 µM
  TGI: 53 µM
HL-60(TB) leukemia
  GI50: 8.2 µM
  TGI: 30.4 µM
NCI-H522 lung
  GI50: 3.61 µM
  TGI: 18 µM
SN12C renal
  GI50: 6.64 µM
  TGI: 21.4 µM
IGROV1 ovarian
  GI50: 7.15 µM
  TGI: 23.9 µM
SNB-19 CNS
  GI50: 4.94 µM
  TGI: 18 µM
OVCAR-4 ovarian
  GI50: 12.8 µM
  TGI: 30.3 µM
MDA-MB-468 breast
  GI50: 1.51 µM
  TGI: 3.63 µM
OVCAR-5 ovarian
  GI50: 9.96 µM
  TGI: 44.3 µM
A549 NSCLC
  GI50: > 100 µM
  TGI: > 100 µM
M14 melanoma
  GI50: 1.84 µM
  TGI: 3.72 µM
OVCAR-8 ovarian
  GI50: 10.1 µM
  TGI: 21.7 µM
T-47D breast
  GI50: 4.19 µM
  TGI: 21.9 µM
MCF7 breast
  GI50: 3.53 µM
  TGI: 13.3 µM
TK-10 renal
  GI50: 16.9 µM
  TGI: 37 µM
NCI-H460 lung
  GI50: 8.48 µM
  TGI: 22.1 µM
MDA-MB-231 breast
  GI50: 2.87 µM
  TGI: 9.37 µM
A498 renal
  GI50: 32.8 µM
  TGI: 65.7 µM
HOP-62 NSCLC
  GI50: 7.74 µM
  TGI: 29 µM
RPMI-8226 leukemia
  GI50: 3.36 µM
  TGI: > 100 µM
MDA-MB-435
  GI50: 4.59 µM
  TGI: 17.8 µM
UACC-62 melanoma
  GI50: 13.5 µM
  TGI: 31.6 µM
BT-549 breast
  GI50: 10.3 µM
  TGI: 25.4 µM
NCI-H23 lung
  GI50: 12.6 µM
  TGI: 30.2 µM
OVCAR-3 ovarian
  GI50: 13.4 µM
  TGI: 26.9 µM
LOX IMVI melanoma
  GI50: 1.79 µM
  TGI: 3.5 µM
RXF 393 renal
  GI50: 8.76 µM
  TGI: 67.6 µM
MOLT-4 leukemia
  GI50: 2.4 µM
  TGI: 5.18 µM
ACHN renal
  GI50: 30.6 µM
  TGI: > 100 µM
786-0 renal
  GI50: 13.2 µM
  TGI: 32.4 µM
PC-3 prostate
  GI50: 10.8 µM
  TGI: 35.6 µM
KM12 colon
  GI50: 15.3 µM
  TGI: 29.1 µM
EKVX NSCLC
  GI50: 16.8 µM
  TGI: > 100 µM
SNB-75 CNS
  GI50: 10.2 µM
  TGI: 24.3 µM
SF-539 CNS
  GI50: 11.3 µM
  TGI: 24.5 µM
SF-268 CNS
  GI50: 13.9 µM
  TGI: 32.4 µM
CAKI-1 renal
  GI50: 65.4 µM
  TGI: > 100 µM
MALME-3M melanoma
  GI50: 2.47 µM
  TGI: 6.92 µM
SK-MEL-28 melanoma
  GI50: 1.77 µM
  TGI: 3.46 µM
HT29 colon
  GI50: 6.44 µM
  TGI: 26.6 µM
SK-OV-3 ovarian
  GI50: 14.8 µM
  TGI: 38.2 µM
HS 578T breast
  GI50: 4.32 µM
  TGI: 18.2 µM
UO-31 renal
  GI50: 45.6 µM
  TGI: > 100 µM
HCT-116 colon
  GI50: 4.72 µM
  TGI: 19.5 µM
HCC-2998 colon
  GI50: 5.83 µM
  TGI: 19.3 µM
SW-620 colon
  GI50: 3.93 µM
  TGI: 14.1 µM
HCT-15 colon
  GI50: 19.6 µM
  TGI: > 100 µM
